# Assay results taken from ChEMBL document CHEMBL3872234, “Polyfluorinated salicylic acid derivatives as analogs of known drugs: Synthesis, molecular docking and biological evaluation” (Bioorg Med Chem, 2017).
# “And” between values parts separate entries of the source, which are not always exact repeats. Identical values can stand only once.
# Columns and labels:
# [1] = tested on: Rattus norvegicus; assay: Antiinflammatory activity in rat carrageenan-induced paw edema model assessed as inhibition of paw swelling at 50 mg/kg, ip administered 30 mins prior to carrageenan challenge measured after 5 hrs; assay type: functional
# [2] = Acute toxicity in CD-1 mouse assessed as viability at 300 mg/kg, ip measured up to 14 days; assay type: organism-based; details: in vivo
# [3] = tested on: Rattus norvegicus; assay: Analgesic activity in rat assessed as latent period prolongation at 25 mg/kg, ip measured after 1 hr by hot plate test; assay type: functional
# [4] = tested on: Rattus norvegicus; assay: Antiinflammatory activity in rat carrageenan-induced paw edema model assessed as inhibition of paw swelling at 50 mg/kg, ip administered 30 mins prior to carrageenan challenge measured after 3 hrs; assay type: functional
# [5] = Acute toxicity in CD-1 mouse assessed as viability at 150 mg/kg, ip measured up to 14 days; assay type: organism-based; details: in vivo
# [6] = Acute toxicity in CD-1 mouse assessed as viability at 50 mg/kg, ip measured up to 14 days; assay type: organism-based; details: in vivo, read-out: Activity
# [7] = tested on: Rattus norvegicus; assay: Antiinflammatory activity in rat carrageenan-induced paw edema model assessed as inhibition of paw swelling at 25 mg/kg, ip administered 30 mins prior to carrageenan challenge measured after 3 hrs; assay type: functional
# [8] = tested on: Rattus norvegicus; assay: Antiinflammatory activity in rat carrageenan-induced paw edema model assessed as inhibition of paw swelling at 25 mg/kg, ip administered 30 mins prior to carrageenan challenge measured after 5 hrs; assay type: functional
# [9] = Acute toxicity in CD-1 mouse assessed as viability at 100 mg/kg, ip measured up to 14 days; assay type: organism-based; details: in vivo
# [10] = Drug level in prisma HT buffer treated with 2-acetoxy-3,4,5-trifluorobenzoic acid at pH 5 to 7.4 by UV absorbance assay; assay type: toxicity
# [11] = target: T1, Prostaglandin G/H synthase 1 (Ovis aries) (UniProt P05979); assay: Inhibition of ovine COX-1 assessed as reduction in PGG2 production using ADHP as substrate at 200 uM incubated for 5 mins followed by substrate addition measured after 2 mins by fluorescence assay
# T1 sequence (whole entry): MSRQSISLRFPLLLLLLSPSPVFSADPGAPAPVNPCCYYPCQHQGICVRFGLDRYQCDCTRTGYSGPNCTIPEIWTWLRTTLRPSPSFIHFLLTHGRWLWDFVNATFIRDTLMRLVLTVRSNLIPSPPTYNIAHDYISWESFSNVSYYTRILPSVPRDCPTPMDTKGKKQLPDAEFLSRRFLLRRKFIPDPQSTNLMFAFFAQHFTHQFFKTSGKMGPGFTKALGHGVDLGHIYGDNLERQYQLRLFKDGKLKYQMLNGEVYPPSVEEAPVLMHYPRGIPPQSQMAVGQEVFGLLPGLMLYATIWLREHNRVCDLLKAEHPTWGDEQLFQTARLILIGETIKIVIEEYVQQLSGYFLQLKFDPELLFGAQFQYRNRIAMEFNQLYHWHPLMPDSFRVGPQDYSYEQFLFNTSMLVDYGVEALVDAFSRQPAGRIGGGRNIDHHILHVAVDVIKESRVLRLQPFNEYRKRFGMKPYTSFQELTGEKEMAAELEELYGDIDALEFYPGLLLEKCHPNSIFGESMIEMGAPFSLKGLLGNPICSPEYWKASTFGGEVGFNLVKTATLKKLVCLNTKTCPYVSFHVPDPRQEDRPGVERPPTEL
# [12] = target: T1, Prostaglandin G/H synthase 1 (Ovis aries); assay: Inhibition of ovine COX-1 assessed as reduction in PGG2 production using ADHP as substrate at 2 uM incubated for 5 mins followed by substrate addition measured after 2 mins by fluorescence assay
# [13] = Permeability of the compound at pH 6.2 after 2 hrs by PAMPA; assay type: ADME; details: read-out: Peff
# [14] = Permeability of the compound at pH 5 after 2 hrs by PAMPA; assay type: ADME; details: read-out: Peff
# [15] = Permeability of the compound at pH 7.4 after 2 hrs by PAMPA; assay type: ADME; details: read-out: Peff
# [16] = Drug level in prisma HT buffer treated with 2-acetoxy-3,4,5,6-tetrafluorobenzoic acid at pH 5 to 7.4 by UV absorbance assay; assay type: toxicity
# [17] = Acute toxicity in CD-1 mouse assessed as viability at 75 mg/kg, ip measured up to 14 days; assay type: organism-based; details: in vivo, read-out: Activity
structure (smiles),measurement,setting,value
CC(=O)Oc1c(F)c(F)c(F)c(F)c1C(=O)O,inhibition in vivo at 50 mg/kg,[1],45.1%
same,survival at 336 h,[2]; read-out: Activity,0%
same,Activity,[3],83.2%
same,inhibition in vivo at 50 mg/kg,[4],65.6%
same,survival at 336 h,[5]; read-out: Activity,80%
same,survival at 336 h,[6],100%
same,inhibition in vivo at 25 mg/kg,[7],42.9%
same,inhibition in vivo at 25 mg/kg,[8],56.8%
CC(=O)Oc1cc(F)c(F)cc1C(=O)O,survival at 336 h,[5]; read-out: Activity,100%
O=C(O)c1cc(F)c(F)cc1O,survival at 336 h,[2]; read-out: Activity,33%
same,Activity,[3],60.6%
same,survival at 336 h,[5]; read-out: Activity,66%
same,survival at 336 h,[9]; read-out: Activity,100%
COC(=O)c1cc(F)c(F)c(F)c1O,survival at 336 h,[2]; read-out: Activity,0%
same,inhibition in vivo at 50 mg/kg,[4],40.3%
same,survival at 336 h,[5]; read-out: Activity,100%
same,survival at 336 h,[9]; read-out: Activity,100%
O=C(O)c1cc(F)c(F)c(F)c1O,inhibition in vivo at 50 mg/kg,[1],46.9%
same,survival at 336 h,[2]; read-out: Activity,0%
same,Activity,[3],178.1%
same,inhibition in vivo at 50 mg/kg,[4],46.7%
same,Drug metabolism,[10],Metabolite_Notdetected
O=C(O)c1c(O)c(F)c(F)c(F)c1F [listing 1 of 2 here],inhibition,[11],39% and 31%
same,inhibition,[12],34% and 59%
CC(=O)Oc1c(F)cc(F)c(F)c1C(=O)O,Activity,[3],86.5%
same,inhibition in vivo at 25 mg/kg,[7],37.3%
same,inhibition in vivo at 25 mg/kg,[8],32.7%
COc1c(F)c(F)c(F)c(F)c1C(=O)O,inhibition,[11],64%
same,Activity,[3],100.8%
same,inhibition in vivo at 25 mg/kg,[7],53.8%
same,inhibition in vivo at 25 mg/kg,[8],46.9%
same,inhibition,[12],48%
O=C([O-])c1c(O)c(F)c(F)c(F)c1F.[Na+],Papp at 2 h,[13],1.8 ×10⁻⁶ cm/s
same,Papp at 2 h,[14],22.1 ×10⁻⁶ cm/s
same,Papp at 2 h,[15],0.1 ×10⁻⁶ cm/s
O=C(O)Cc1ccccc1Nc1c(Cl)cccc1Cl [DICLOFENAC],Activity,[3],56 - 102.3%
same,inhibition in vivo at 25 mg/kg,[7],64.4%
same,inhibition in vivo at 25 mg/kg,[8],54.4%
O=C(O)c1c(O)c(F)c(F)c(F)c1F [listing 2 of 2 here],inhibition in vivo at 50 mg/kg,[1],56.5%
same,Papp at 2 h,[13],0.5 ×10⁻⁶ cm/s
same,survival at 336 h,[2]; read-out: Activity,0%
same,Papp at 2 h,[14],18.6 ×10⁻⁶ cm/s
same,Activity,[3],143.2%
same,Papp at 2 h,[15],0.1 ×10⁻⁶ cm/s
same,inhibition in vivo at 50 mg/kg,[4],64%
same,Drug metabolism,[16],Metabolite_Notdetected
same,survival at 336 h,[17],66%
same,inhibition in vivo at 25 mg/kg,[8],33.1%
O=C(O)c1ccc(F)c(F)c1O,survival at 336 h,[2]; read-out: Activity,33%
same,survival at 336 h,[5]; read-out: Activity,66%
same,survival at 336 h,[9]; read-out: Activity,66%
COc1c(C(=O)O)cc(F)c(F)c1F,inhibition in vivo at 50 mg/kg,[1],30%
same,survival at 336 h,[2]; read-out: Activity,0%
same,Activity,[3],73.2%
same,inhibition in vivo at 50 mg/kg,[4],40%
same,survival at 336 h,[5]; read-out: Activity,80%
same,survival at 336 h,[6],100%
same,inhibition,[12],< 10%
CC(=O)Oc1c(C(=O)O)ccc(F)c1F,survival at 336 h,[2]; read-out: Activity,33%
same,Activity,[3],98.8%
same,inhibition in vivo at 25 mg/kg,[8],35.3%
O=C(O)c1c(O)c(F)cc(F)c1F,Activity,[3],60.3%
same,survival at 336 h,[5]; read-out: Activity,66%
same,inhibition in vivo at 25 mg/kg,[7],47%
same,inhibition in vivo at 25 mg/kg,[8],41.7%
COC(=O)c1c(O)c(F)c(F)c(F)c1F,survival at 336 h,[2]; read-out: Activity,0%
same,inhibition,[11],48%
same,survival at 336 h,[5]; read-out: Activity,90%
same,survival at 336 h,[6],100%
same,inhibition,[12],47%
CC(=O)Oc1ccccc1C(=O)O [ASPIRIN],survival at 336 h,[2],33%
same,Papp at 2 h,[14],5.1 ×10⁻⁶ cm/s
same,inhibition,[11],36%
same,Activity,[3],57.9%
same,Papp at 2 h,[15],4.7 ×10⁻⁶ cm/s
same,survival at 336 h,[5],100%
same,survival at 336 h,[9],100%
same,inhibition in vivo at 25 mg/kg,[7],30.6 to 56.2%
same,inhibition in vivo at 25 mg/kg,[8],29.4 to 44.9%
same,inhibition,[12],31%
CC(=O)Oc1c(C(=O)O)cc(F)c(F)c1F,survival at 336 h,[2]; read-out: Activity,0%
same,inhibition,[11],18%
same,Activity,[3],71.2%
same,survival at 336 h,[5]; read-out: Activity,70%
same,survival at 336 h,[6],100%
same,inhibition,[12],35%
O=C([O-])c1cc(F)c(F)c(F)c1O.[Na+],Activity,[3],66.8%
same,survival at 336 h,[5]; read-out: Activity,66%
